Read-outs that look alike come from different tables or passages of the source.
How the values were obtained:
[1] = target: T1, Recombinant STAT3 protein (STAT3 (G127-I722)) (Homo sapiens, UniProt P40763); assay: STAT3 Fluorescence Polarization (FP) Assay; assay type: binding; settings: probe 5-FAM-GpYLPQTV-NH2 2 nM, 45-minute incubation
T1 construct: Recombinant STAT3 protein (STAT3 (G127-I722))
Summary of the method: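 In this competition FP format, STAT3 residues G127-I722 (25 nM) and 2 nM 5-FAM-GpYLPQTV-NH2 met test compounds for 45 min at room temperature. IC50 values result from fitting mP signal against log concentration by nonlinear regression.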

[2] = target: T2, Recombinant STAT6 protein (STAT6 (W123-T658)) (Homo sapiens, UniProt P42226); assay: STAT6 Fluorescence Polarization (FP) Assay; assay type: binding; settings: 45-minute incubation
T2 construct: Recombinant STAT6 protein (STAT6 (W123-T658))
T2 sequence (P42226 123-658): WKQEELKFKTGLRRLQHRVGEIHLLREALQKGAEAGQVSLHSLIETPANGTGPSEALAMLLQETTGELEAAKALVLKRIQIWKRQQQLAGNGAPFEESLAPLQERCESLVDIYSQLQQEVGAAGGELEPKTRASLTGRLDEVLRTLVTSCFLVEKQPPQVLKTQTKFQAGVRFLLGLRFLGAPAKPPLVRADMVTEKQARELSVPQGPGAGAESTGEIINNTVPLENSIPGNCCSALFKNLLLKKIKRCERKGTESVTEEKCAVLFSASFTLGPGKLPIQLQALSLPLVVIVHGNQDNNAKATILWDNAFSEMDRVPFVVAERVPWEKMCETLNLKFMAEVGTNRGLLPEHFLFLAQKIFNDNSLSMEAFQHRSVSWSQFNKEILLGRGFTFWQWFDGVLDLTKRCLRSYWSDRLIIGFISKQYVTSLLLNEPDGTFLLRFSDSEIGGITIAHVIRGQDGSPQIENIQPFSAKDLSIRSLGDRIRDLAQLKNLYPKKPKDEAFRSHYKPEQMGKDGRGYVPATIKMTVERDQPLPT
Summary of the method: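 Probe displacement format: serially diluted compounds incubated 45 min at room temperature with 2 nM fluorescent phosphopeptide and 250 nM STAT6 (W123-T658) in pH 7.4 HEPES buffer, 1% DMSO final. Polarization signal plotted against log concentration, IC50 fitted by nonlinear regression.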

[3] = STAT3 25 nM, read-out: STAT3 (FP assay IC50)
[4] = STAT6 250 nM, probe 5-FAM-ApYKPFQDLI-NH2 2 nM, read-out: STAT6 (FP assay IC50)
[5] = STAT6 250 nM, probe 5-FAM-Ap[…]-NH2 2 nM, read-out: STAT6 (FP assay IC50)
[6] = STAT3 (G127-I722) 25 nM, read-out: STAT3 (FP assay IC50 class)
[7] = STAT6 (W123-T658) 250 nM, probe 5-FAM-ApYKPFQDLI-NH2 2 nM, read-out: STAT6 (FP assay IC50 class)
[8] = STAT6 (W123-T658) 250 nM, probe 5-FAM-Ap[…]-NH2 2 nM, read-out: STAT6 (FP assay IC50 class)

T1 sequence (P40763 127-722): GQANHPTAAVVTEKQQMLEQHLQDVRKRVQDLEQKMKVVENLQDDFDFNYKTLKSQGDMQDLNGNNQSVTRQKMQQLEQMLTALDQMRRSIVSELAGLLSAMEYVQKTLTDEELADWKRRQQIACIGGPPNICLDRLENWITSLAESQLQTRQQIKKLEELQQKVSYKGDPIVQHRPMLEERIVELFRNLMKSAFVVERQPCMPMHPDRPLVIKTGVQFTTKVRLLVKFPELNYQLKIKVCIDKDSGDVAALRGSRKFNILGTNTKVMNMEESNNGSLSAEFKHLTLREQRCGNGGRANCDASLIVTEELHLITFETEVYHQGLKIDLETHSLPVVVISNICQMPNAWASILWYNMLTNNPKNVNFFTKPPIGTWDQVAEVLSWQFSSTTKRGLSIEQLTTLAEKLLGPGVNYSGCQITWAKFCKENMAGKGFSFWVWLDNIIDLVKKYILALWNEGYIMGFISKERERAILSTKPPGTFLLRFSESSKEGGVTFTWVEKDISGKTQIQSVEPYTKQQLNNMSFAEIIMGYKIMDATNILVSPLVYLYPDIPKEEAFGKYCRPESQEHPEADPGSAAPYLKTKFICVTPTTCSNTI

| SMILES | IC50 [1, 6] [nM] | IC50 [2, 8] [nM] | also measured |
| --- | --- | --- | --- |
| N#C[C@H]1CN(C(=O)[C@@H]2CC[C@@H]3CCCC[C@H](NC(=O)c4ccc5ccc(C(F)(F)P(=O)(O)O)cc5c4)C(=O)N32)C[C@@H]1c1cc[nH]c(=O)c1 (single isomer, unassigned) [Compound 80, ((7-(((3S,6S,10aS)-3-((3R,4S or 3S,4R)-3-cyano-4-(2-oxo-1,2-dihydropyridin-4-yl)pyrrolidine-1-carbonyl)-5-oxodecahydropyrrolo [1,2-a]azocin-6-yl)carbamoyl)naphthalen-2-yl)difluoromethyl) phosphonic acid] |  |  | IC50 [1, 3]: 100 to 1000 nM; IC50 [2, 4]: ≤ 300 nM |
| N#C[C@H]1CN(C(=O)[C@@H]2CC[C@@H]3CCCC[C@H](NC(=O)c4cc5cc(CP(=O)(O)O)ccc5s4)C(=O)N32)C[C@@H]1c1ccccc1 (single isomer, unassigned) [Compound 90, ((2-(((3S,6S,10aS)-3-((3R,4S or 3S,4R)-3-cyano-4-phenylpyrrolidine-1-carbonyl)-5-oxodecahydropyrrolo [1,2-a]azocin-6-yl)carbamoyl)benzo[b]thiophen-5-yl)methyl) phosphonic acid] |  |  | IC50 [1, 3]: > 10000 nM; IC50 [2, 4]: 300 to 3000 nM |
| CC1CCC[C@H](NC(=O)c2cc3cc(C(F)(F)P(=O)(O)O)ccc3s2)C(=O)N2[C@@H]1CC[C@H]2C(=O)N1C[C@H](c2cc[nH]c(=O)c2)[C@@H](C#N)C1 (single isomer, unassigned) [Compound 104, ((2-(((3S,6S,10aR)-3-((3R,4S or 3S,4R)-3-cyano-4-(2-oxo-1,2-dihydropyridin-4-yl)pyrrolidine-1-carbonyl)-10-methyl-5-oxodecahydropyrrolo [1,2-a]azocin-6-yl)carbamoyl)benzo[b]thiophen-5-yl)difluoromethyl) phosphonic acid] |  |  | IC50 [1, 3]: 100 to 1000 nM; IC50 [2, 4]: 300 to 3000 nM |
| N#C[C@@H]1CN(C(=O)[C@@H]2C[C@@H](O)[C@@H]3CCCCC[C@H](NC(=O)c4ccc5ccc(C(F)(F)P(=O)(O)O)cc5c4)C(=O)N23)C[C@H]1c1cc[nH]c(=O)c1 (single isomer, unassigned) [Compound 106, ((7-(((1R,3S,6S, 11aS)-3-((3S,4R or 3R,4S)-3-cyano-4-(2-oxo-1,2-dihydropyridin-4-yl)pyrrolidine-1-carbonyl)-1-hydroxy-5-oxodecahydro-1H-pyrrolo[1,2-a]azonin-6-yl)carbamoyl)naphthalen-2-yl)difluoromethyl) phosphonic acid] |  |  | IC50 [1, 3]: 1000 to 10000 nM; IC50 [2, 5]: ≤ 300 nM |
| N#C[C@@H]1CN(C(=O)[C@@H]2CCC[C@@H]3CCC[C@H](NC(=O)c4cc5cc(C(F)(F)P(=O)(O)O)ccc5s4)C(=O)N32)C[C@H]1c1ccccc1 (single isomer, unassigned) [Compound 107, ((2-(((4S,7S,10aS)-4-((3S,4R or 3R,4S)-3-cyano-4-phenylpyrrolidine-1-carbonyl)-6-oxodecahydropyrido [1,2-a]azepin-7-yl)carbamoyl)benzo[b]thiophen-5-yl)difluoromethyl) phosphonic acid] |  |  | IC50 [1, 3]: 100 to 1000 nM; IC50 [2, 4]: ≤ 300 nM |
| C[C@@H]1C[C@H]2CC[C@@H](C(=O)N3CC(c4cccnc4)C3)N2C(=O)[C@@H](NC(=O)c2cc3cc(C(F)(F)P(=O)(O)O)ccc3s2)C1 (single isomer, unassigned) [Compound 110, (difluoro(2-(((3S,6S,8R,9aR)-8-methyl-5-oxo-3-(3-(pyridin-3-yl)azetidine-1-carbonyl)octahydro-1H-pyrrolo[1,2-a]azepin-6-yl)carbamoyl)benzo[b]thiophen-5-yl)methyl) phosphonic acid or (difluoro(2-(((3S,6S,8S,9aR)-8-methyl-5-oxo-3-(3-(pyridin-3-yl)azetidine-1-carbonyl)octahydro-1H-pyrrolo[1,2-a]azepin-6-yl)carbamoyl)benzo[b]thiophen-5-yl)methyl) phosphonic acid] |  |  | IC50 [1, 3]: < 100 nM; IC50 [2, 5]: 3000 to 30000 nM |
| CC(C)[C@@H]1CC[C@H](NC(=O)c2cc3cc(C(F)P(=O)(O)O)ccc3s2)C(=O)N2[C@H](CC[C@H]2C(=O)N2C[C@H](c3ccccc3)[C@@H](C#N)C2)C1 (single isomer, unassigned) [Compound 212] | 1000 to 10000 |  | IC50 [2, 7]: ≤ 300 nM |
| N#C[C@@H]1CN(C(=O)[C@@H]2CC[C@@H]3CCCC[C@H](NC(=O)c4cc5cc(C(F)P(=O)(O)O)ccc5s4)C(=O)N32)C[C@H]1c1ccccc1 (single isomer, unassigned) [Compound 224] | 1000 to 10000 | ≤ 300 |  |
| N#C[C@@H]1CN(C(=O)[C@@H]2CC[C@@H]3CCCC[C@H](NC(=O)c4cc5cc(C(F)P(=O)(O)O)ccc5s4)C(=O)N32)C[C@H]1c1ccccc1 (single isomer, unassigned) [Compound 225] | 1000 to 10000 |  | IC50 [2, 7]: ≤ 300 nM |
| N#C[C@@H]1CN(C(=O)[C@@H]2CC[C@@H]3CCCC[C@H](NC(=O)c4ccc5ccc(C(F)P(=O)(O)O)cc5c4)C(=O)N32)C[C@H]1c1ccccc1 (single isomer, unassigned) [Compound 226] | 1000 to 10000 | ≤ 300 |  |
| Cn1ccc([C@@H]2CN(C(=O)[C@@H]3CC[C@@H]4CCCC[C@H](NC(=O)c5cc6cc(C(F)P(=O)(O)O)ccc6s5)C(=O)N43)C[C@H]2C#N)cc1=O (single isomer, unassigned) [Compound 227] | 100 to 1000 | 300 to 3000 |  |
| Cn1ccc([C@@H]2CN(C(=O)[C@@H]3CC[C@@H]4CCCC[C@H](NC(=O)c5cc6cc(C(F)P(=O)(O)O)ccc6s5)C(=O)N43)C[C@H]2C#N)cc1=O (single isomer, unassigned) [Compound 228] | 1000 to 10000 |  | IC50 [2, 7]: 300 to 3000 nM |
| N#C[C@@H]1CN(C(=O)[C@@H]2CC[C@@H]3CCC[C@H](NC(=O)c4cc5cc(C(F)P(=O)(O)O)ccc5s4)C(=O)N32)C[C@H]1c1ccccc1 (single isomer, unassigned) [Compound 232] | 1000 to 10000 | 300 to 3000 |  |
| N#C[C@@H]1CN(C(=O)[C@@H]2CC[C@@H]3CCC[C@@H](C4CC4)[C@H](NC(=O)c4cc5cc(C(F)(F)P(=O)(O)O)ccc5s4)C(=O)N32)C[C@H]1c1ccccc1 (single isomer, unassigned) [Compound 234] | 1000 to 10000 | ≤ 300 |  |

Now from value to compound, other results behind:

| IC50 [1, 6] [nM] | IC50 [2, 8] [nM] | SMILES | also measured |
| --- | --- | --- | --- |
| 1000 to 10000 | ≤ 300 | CC[C@@H]1CC[C@H](NC(=O)c2cc3cc(C(F)P(=O)(O)O)ccc3s2)C(=O)N2[C@H](CC[C@H]2C(=O)N2C[C@@H](C#N)[C@H](c3ccccc3)C2)C1 (single isomer, unassigned) [Compound 235] |  |
| 1000 to 10000 | ≤ 300 | CC[C@H]1CC[C@H](NC(=O)c2cc3cc(C(F)P(=O)(O)O)ccc3s2)C(=O)N2[C@H](CC[C@H]2C(=O)N2C[C@@H](C#N)[C@H](c3ccccc3)C2)C1 (single isomer, unassigned) [Compound 237] |  |
| 1000 to 10000 | ≤ 300 | CC(C)[C@H]1CC[C@H](NC(=O)c2cc3cc(C(F)P(=O)(O)O)ccc3s2)C(=O)N2[C@H](CC[C@H]2C(=O)N2C[C@@H](C#N)[C@H](c3ccccc3)C2)C1 (single isomer, unassigned) [Compound 238] |  |
| 1000 to 10000 | ≤ 300 | CCC[C@@H]1CC[C@H](NC(=O)c2cc3cc(C(F)P(=O)(O)O)ccc3s2)C(=O)N2[C@H](CC[C@H]2C(=O)N2C[C@@H](C#N)[C@H](c3ccccc3)C2)C1 (single isomer, unassigned) [Compound 239] |  |
| 1000 to 10000 | ≤ 300 | CCC[C@H]1CC[C@H](NC(=O)c2cc3cc(C(F)P(=O)(O)O)ccc3s2)C(=O)N2[C@H](CC[C@H]2C(=O)N2C[C@@H](C#N)[C@H](c3ccccc3)C2)C1 (single isomer, unassigned) [Compound 240] |  |
| < 100 | 300 to 3000 | O=C(N[C@H]1CCC[C@H]2CC[C@@H](C(=O)N3CC(c4cnccc4F)C3)N2C1=O)c1cc2cc([C@@H](F)P(=O)(O)O)ccc2s1 (single isomer, unassigned) [Compound 599] |  |
| < 100 | 300 to 3000 | O=C(N[C@H]1CCC[C@H]2CC[C@@H](C(=O)N3CC(c4cnccc4F)C3)N2C1=O)c1cc2cc([C@H](F)P(=O)(O)O)ccc2s1 (single isomer, unassigned) [Compound 600] |  |
| < 100 | 3000 to 30000 | CN(C)c1ccncc1C1CN(C(=O)[C@@H]2CC[C@@H]3CCC[C@H](NC(=O)c4cc5cc([C@@H](F)P(=O)(O)O)ccc5s4)C(=O)N32)C1 (single isomer, unassigned) [Compound 631] |  |
